Test results taken from PubChem BioAssay AID248 (DTP/NCI, 2004).
Several values for one entry are separate records, joined by “and”; a condition that tells them apart may be missing. Equal values may be shown once. Inconclusive results and toxic doses are left out. No stated cut-off is given here; in the data, active means T/C of 150% or more; inactive means T/C below 125%.

Tested on: L1210 leukemia ip in BDF1 mice, survival T/C
Assay: NCI In Vivo Anticancer Drug Screen. Data for tumor model L1210 Leukemia (intraperitoneal) in B6D2F1 (BDF1) mice
Details: endpoint: mean survival time, higher = longer survival
Summary of the method: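 Transplanted-tumor mice were given test agent; controls received vehicle only. Survival readings from the two groups were divided (treated over control).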

[1] = dose: 100.0 mg/kg/injection, schedule: Q01DX009 (ip), vehicle: saline with Tween-80
[2] = dose: 100.0 mg/kg/injection, schedule: Q04DX003 (ip), vehicle: saline with Tween-80
[3] = dose: 200.0 mg/kg/injection, schedule: Q01DX009 (ip), vehicle: saline with Tween-80
[4] = dose: 200.0 mg/kg/injection, schedule: Q04DX003 (ip), vehicle: saline with Tween-80
[5] = dose: 400.0 mg/kg/injection, schedule: Q01DX009 (ip), vehicle: saline with Tween-80
[6] = dose: 50.0 mg/kg/injection, schedule: Q01DX009 (ip), vehicle: saline with Tween-80

Measured: T/C

Cc1cc([N+](=O)[O-])ccc1I
inactive: dose: 50.0 mg/kg/injection, schedule: Q01DX001 (ip), vehicle: carboxymethylcellulose (CMC) 101 % of control | dose: 100.0 mg/kg/injection, schedule: Q01DX001 (ip), vehicle: carboxymethylcellulose (CMC) 95 % of control | dose: 200.0 mg/kg/injection, schedule: Q01DX001 (ip), vehicle: carboxymethylcellulose (CMC) 95 % of control | dose: 400.0 mg/kg/injection, schedule: Q01DX001 (ip), vehicle: carboxymethylcellulose (CMC) 90 % of control

CC1C(=O)C(Br)C2CC(O)CCC2(C)C1C (stereo unspecified)
inactive: dose: 75.0 mg/kg/injection, schedule: Q01DX001 (ip), vehicle: saline 100 % of control | dose: 150.0 mg/kg/injection, schedule: Q01DX001 (ip), vehicle: saline 94 % of control | dose: 300.0 mg/kg/injection, schedule: Q01DX001 (ip), vehicle: saline 89 % of control

CP1(=O)CC2OC23CCCCC31 (stereo unspecified)
inactive: dose: 12.5 mg/kg/injection, schedule: Q01DX009 (ip), vehicle: saline 98 % of control | dose: 25.0 mg/kg/injection, schedule: Q01DX009 (ip), vehicle: saline 98 % of control | dose: 50.0 mg/kg/injection, schedule: Q01DX009 (ip), vehicle: saline 102 % of control | dose: 100.0 mg/kg/injection, schedule: Q01DX009 (ip), vehicle: other 109 % of control | dose: 100.0 mg/kg/injection, schedule: Q01DX009 (ip), vehicle: saline 89 % of control | dose: 200.0 mg/kg/injection, schedule: Q01DX009 (ip), vehicle: other 114 % of control

O=[N+]([O-])c1ccc(OCc2ccccc2)c([N+](=O)[O-])c1
inactive: [1] 90 % of control | [2] 90 % of control | [3] 87 % of control | [4] 90 % of control | [5] 87 % of control | dose: 400.0 mg/kg/injection, schedule: Q04DX003 (ip), vehicle: saline with Tween-80 89 % of control

O=[N+]([O-])c1cccc(C=Nc2ccc(CCO)cc2)c1
inactive: dose: 100.0 mg/kg/injection, schedule: Q04DX002 (ip), vehicle: Klucel (hydroxypropylcellulose) (HPC) 104 % of control | dose: 200.0 mg/kg/injection, schedule: Q04DX002 (ip), vehicle: Klucel (hydroxypropylcellulose) (HPC) 121 % of control | dose: 400.0 mg/kg/injection, schedule: Q04DX002 (ip), vehicle: Klucel (hydroxypropylcellulose) (HPC) 107 % of control

CC1=CC(C)C(=O)N(C)C(C)=C1 (stereo unspecified)
inactive: dose: 75.0 mg/kg/injection, schedule: Q01DX001 (ip), vehicle: carboxymethylcellulose (CMC) 97 % of control | dose: 150.0 mg/kg/injection, schedule: Q01DX001 (ip), vehicle: carboxymethylcellulose (CMC) 91 % of control | dose: 300.0 mg/kg/injection, schedule: Q01DX001 (ip), vehicle: carboxymethylcellulose (CMC) 92 % of control

CN(C)c1ccc(/C=C/c2ccc3ccccc3n2)cc1
inactive: dose: 100.0 mg/kg/injection, schedule: Q01DX001 (ip), vehicle: Klucel (hydroxypropylcellulose) (HPC) 100 % of control | dose: 100.0 mg/kg/injection, schedule: Q01DX009 (ip), vehicle: Klucel (hydroxypropylcellulose) (HPC) 103 % of control | dose: 200.0 mg/kg/injection, schedule: Q01DX001 (ip), vehicle: Klucel (hydroxypropylcellulose) (HPC) 97 % of control | dose: 200.0 mg/kg/injection, schedule: Q01DX009 (ip), vehicle: Klucel (hydroxypropylcellulose) (HPC) 100 % of control | dose: 400.0 mg/kg/injection, schedule: Q01DX001 (ip), vehicle: Klucel (hydroxypropylcellulose) (HPC) 101 % of control | dose: 400.0 mg/kg/injection, schedule: Q01DX009 (ip), vehicle: Klucel (hydroxypropylcellulose) (HPC) 95 % of control

C=CC/C=C/C1CCCCC1
inactive: [6] 92 % of control | [1] 100 % of control | [3] 89 % of control

O=C(COc1ccc(Cl)cc1Cl)Nc1ccccc1F
inactive: [6] 92 % of control | [1] 98 % of control and 87 % of control | [3] 89 % of control | [5] 95 % of control

Nc1ncc(CCCCc2ccccc2)c(=O)[nH]1
inactive: dose: 100.0 mg/kg/injection, schedule: Q01DX001 (ip), vehicle: saline with Tween-80 96 % of control | dose: 200.0 mg/kg/injection, schedule: Q01DX001 (ip), vehicle: saline with Tween-80 93 % of control | dose: 400.0 mg/kg/injection, schedule: Q01DX001 (ip), vehicle: saline with Tween-80 98 % of control

CC(C)C12CCC(=O)C=C1CCCC2OC(=O)c1ccccc1C(=O)O (stereo unspecified)
inactive: [2] 101 % of control | [4] 100 % of control

CCOCCOCCOC(C)Oc1ccc(C(=O)OC)cc1 (stereo unspecified)
inactive: dose: 100.0 mg/kg/injection, schedule: Q04DX002 (ip), vehicle: saline 99 % of control | dose: 200.0 mg/kg/injection, schedule: Q04DX002 (ip), vehicle: saline 96 % of control | dose: 400.0 mg/kg/injection, schedule: Q04DX002 (ip), vehicle: saline 89 % of control
